“And” between values parts separate entries of the source, which are not always exact repeats. Identical values can stand only once.
Test system: CB2
Assay: CBD bioactivity test (monoclonal antibody test based on CB2 affinity)
Assay type: binding
Conditions: CBD samples isolated from ImmunAG
Method: All chemicals and solutions were obtained from Sigma-Aldrich (St. Louis, Mo.). All cell cultures were obtained from Creative Bioarray, Shirley, N.Y. CBD bioactivity was measured using practices described in Cushing et al., “Measuring the Bioactivity of Phytocannabinoid Cannabidiol from Cannabis Sources, and a Novel Non-Cannabis Source,” Journal of Medical Phyto.
CBD Samples and Bioactivity Testing. […] Following isolation, bioactivity was measured using procedures outlined in Cushing et al., “Measuring the Bioactivity of Phytocannabinoid Cannabidiol from Cannabis Sources, and a Novel Non-Cannabis Source,” Journal of Medical Phyto.
The bioactivity testing procedure used in this experiment, as described in Cushing et al., “Measuring the Bioactivity of Phytocannabinoid Cannabidiol from Cannabis Sources, and a Novel Non-Cannabis Source,” Journal of Medical Phyto. Research 10 (2018), which is hereby incorporated by reference in its entirety, consisted of a monoclonal antibody test whose validity was based on the CB2 affinity of CBD samples.

**Q.** Which Bioactivity does the source give for `C=C(C)C1CCC(C)=CC1c1c(O)cc(CCCCC)cc1O` (stereo not drawn) [CBD, 2-(6-isopropenyl-3-methyl-2-cyclohexen-l-yl)-5-pentyl-1,3-benzenediol] here?
**A.** 0.80 and 0.90 and 0.95
